Test results taken from patent publication US20240173440A1, “HIGH PURITY COPPER RADIOPHARMACEUTICAL COMPOSITIONS AND DIAGNOSTIC AND THERAPEUTIC USES THEREOF” (Nuclidium AG, priority 2022, published 2024).

Assays:
HT-1080.hFAP cells = assay: In vitro cellular uptake (cell surface and internalized fractions) in HT-1080.hFAP cells; type: cell-based, human
Description: (§1) The cellular uptake was studied in vitro using intact cells seeded in 6-well plates overnight. On the day of the experiment, the cells were washed and incubated with each of the exemplified [^61Cu]Cu-radiotracer at different time points, either alone or in the presence of a blocking agent to distinguish between specific and non-specific uptake. At each investigated time point, the medium containing the unbound (free) radiotracer was removed, followed by two washing steps with ice-cold phosphate-buffered saline. The cells were then treated 2×5 min with ice-cold glycine solution (0.05 M, pH 2.8) to detach the cell surface-bound radiotracer (acid released). Afterwards, the cells containing the internalized radiotracer were detached with 1 M NaOH at 37° C. and collected for measurement. The amount of specific cell surface-bound and internalized radiotracer is expressed as percentage of the total applied activity, after subtracting the non-specific values.
as §1, with “^61Cu-labeled conjugate” for “of the exemplified [^61Cu]Cu-radiotracer”
The cells were then preconditioned in 360 μL of assay medium (MEM medium without supplements) at 37° C. for 60 min. 40 μL of a 2 nM solution of ^61Cu-labeled radioligand was added and the cells were incubated at 37° C. The cellular uptake was interrupted at different time points (15 min, 1 hour and 4 hours), by washing twice with ice-cold PBS. Cell surface-bound radioligand was obtained by washing cells twice with ice-cold glycine buffer (pH 2.8), followed by a collection of the internalized fraction with 1 M NaOH. The activity in each fraction was measured in a γ-counter (Cobra II).

[1] = system: HT-1080.hFAP and HT-1080.wt xenografts; assay: Quantitative biodistribution in HT-1080.hFAP and HT-1080.wt xenografted mice; type: in vivo; conditions: for Biodistribution HT-1080.wt: FAP-negative tumor; for Biodistribution HT-1080.hFAP: FAP-positive tumor
Description: The tumors were allowed to grow to an average volume of 100-200 mm3.
Biodistribution Studies: The xenografted mice were randomized (n=5 per group) and injected intravenously via the tail vein with the ^61Cu-labeled radioligands (100 μL, […], 0.8-1MBq). Mice were euthanized 1h and 4h pi. by CO2 asphyxiation. Organs of interest and blood were collected, rinsed of excess blood, blotted dry, weighed, and counted in a […]. The samples were counted against a suitably diluted aliquot of the injected solution as the standard and the results are expressed as the percentage of the injected activity per gram of tissue (0% I.A./g)+SD.

[2] = Remaining PET activity in the mouse body 4h p.i.; type: in vivo; conditions: mice
Description: PET/CT Imaging: Mice bearing FAP-positive and FAP-negative xenografts were injected intravenously with ^61Cu-labeled radioligands of the present disclosure or ^61Cu-NODAGA-FAPI-46 (100 μL/[…]/6-12 MBq). […] The mice were euthanized by CO2 at 4 hours p.i., and static PET scans were acquired for 30 min.
Remaining PET activity in the mouse body 4h p.i. prior to the 4h scan was determined (Table 36).

hFAP = hFAP (Homo sapiens (Human), UniProt Q12884); assay: Saturation binding on isolated HEK-293.hFAP cell membranes; set-up: Bmax: unit not given here; conditions: 37° C.
hFAP, sequence (Q12884 whole entry): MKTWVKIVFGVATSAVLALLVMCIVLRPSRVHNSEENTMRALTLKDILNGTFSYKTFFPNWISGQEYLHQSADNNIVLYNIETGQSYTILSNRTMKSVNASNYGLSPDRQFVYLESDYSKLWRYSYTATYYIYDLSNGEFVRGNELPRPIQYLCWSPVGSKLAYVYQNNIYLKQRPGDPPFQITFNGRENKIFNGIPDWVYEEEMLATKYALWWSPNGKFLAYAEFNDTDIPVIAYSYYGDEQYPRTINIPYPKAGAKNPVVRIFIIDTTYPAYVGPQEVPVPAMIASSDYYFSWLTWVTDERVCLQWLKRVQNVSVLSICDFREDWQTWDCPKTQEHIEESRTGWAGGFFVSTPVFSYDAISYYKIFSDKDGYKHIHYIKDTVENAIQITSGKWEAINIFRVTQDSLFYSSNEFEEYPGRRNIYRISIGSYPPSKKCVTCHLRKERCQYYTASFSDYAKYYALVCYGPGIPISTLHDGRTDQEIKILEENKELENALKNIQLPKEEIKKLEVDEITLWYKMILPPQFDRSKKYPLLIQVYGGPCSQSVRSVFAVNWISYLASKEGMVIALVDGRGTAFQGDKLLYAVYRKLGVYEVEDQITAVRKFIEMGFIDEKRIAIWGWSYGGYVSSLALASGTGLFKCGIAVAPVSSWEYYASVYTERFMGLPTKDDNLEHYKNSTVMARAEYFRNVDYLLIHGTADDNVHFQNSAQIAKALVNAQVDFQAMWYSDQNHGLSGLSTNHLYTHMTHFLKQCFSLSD
Description: The cells were homogenized using Ultra-Turrax, and the homogenized suspension was centrifuged at 500×g for 10 min at 4° C. The supernatant was collected in centrifuge tubes (Beckman Coulter Inc., Brea, CA, USA). This procedure was then repeated 5 times. The collected supernatant was centrifuged in an ultra-centrifuge (Beckman) at 4° C. for 55 min at 49,000×g. Then, the pellet was re-suspended in 10 mM ice-cold HEPES buffer (pH 7.5), aliquoted, and stored at −80° C. The protein concentration of those membrane suspensions was determined by the Bradford method, BSA as the standard.
Each assay tube contained 170 μL of binding buffer (20 mM HEPES, pH 7.4, containing 4 mM μgCl2, 0.2% BSA, 20 μg/L bacitracin, 20 μg/L PMSF and 200,000 KIU/L aprotinin). The incubation was initiated by adding 30 μL of radioligand solution at 10 times the final concentration and 100 μL of cell membrane suspension to yield 10 μg of protein per well. For the determination of the non-specific binding, 140 μL of the above binding buffer was added along with 30 μL of FAPI-46 to obtain (0.1 mM). Bound fractions were plotted versus the corresponding radioligand concentration at equilibrium. The dissociation constant (KD) and maximal binding capacity (Bmax) values were calculated using GraphPad Software Inc., Prism 7, San Diego, CA, USA (Table 33 and FIG. 21).

[3] = 1 h p.i., HT-1080.hFAP and HT-1080.wt xenografts
[4] = 4 h p.i., HT-1080.hFAP and HT-1080.wt xenografts
[5] = HT-1080.hFAP and HT-1080.wt xenografts

Structure (SMILES): CN(CCCN1CCN(C(=O)CCC(C(=O)O)N2CCN3CCN(CC2)CC(=O)[O][61Cu][O]C(=O)C3)CC1)c1ccc2nccc(C(=O)NCC(=O)N3CC(F)(F)C[C@H]3C#N)c2c1 (stereo partly shown) [[^61Cu]Cu-NODAGA-FAPI-46]
- Cell surface fraction (HT-1080.hFAP cells; 15 min, HT-1080.hFAP cells, specific uptake (minus HT-1080.wt)): 0.9 ± 0.3 % of the applied activity
- Internalized fraction (HT-1080.hFAP cells; 240 min, HT-1080.hFAP cells, specific uptake (minus HT-1080.wt)): 50.0 ± 6.0 % of the applied activity
- Cell surface fraction (HT-1080.hFAP cells; Time Point 15 min, 0.2 nM): 0.9 ± 0.3 percentage of the total applied activity
- Internalized fraction (HT-1080.hFAP cells; Time Point 240 min, 0.2 nM): 50.0 ± 6.0 percentage of the total applied activity
- Biodistribution Adrenal [1, 3]: 2.2 ± 0.1 % IA/g
- Biodistribution Blood [1, 3]: 2.6 ± 0.1 % IA/g
- Biodistribution Femur [1, 3]: 6.5 ± 0.4 % IA/g
- Biodistribution HT1080.hFAP (FAP-positive tumor) [1, 3]: 8.4 ± 1.4 % IA/g
- Biodistribution HT1080.wt (FAP-negative tumor) [1, 3]: 3.1 ± 0.0 % IA/g
- Biodistribution Heart [1, 3]: 1.1 ± 0.0 % IA/g
- Biodistribution Intestine [1, 3]: 1.0 ± 0.4 % IA/g
- Biodistribution Kidney [1, 3]: 1.5 ± 0.1 % IA/g
- Biodistribution Liver [1, 3]: 0.9 ± 0.0 % IA/g
- Biodistribution Lung [1, 3]: 1.5 ± 0. % IA/g
- Biodistribution Muscle [1, 3]: 1.7 ± 0.1 % IA/g
- Biodistribution Pancreas [1, 3]: 2.0 ± 0.2 % IA/g
- Biodistribution Spleen [1, 3]: 0.7 ± 0.1 % IA/g
- Biodistribution Stomach [1, 3]: 1.0 ± 0.1 % IA/g
- Biodistribution Adrenal [1, 4]: 2.0 ± 0.2 % IA/g
- Biodistribution Blood [1, 4]: 1.5 ± 0.1 % IA/g
- Biodistribution Femur [1, 4]: 4.6 ± 0.4 % IA/g
- Biodistribution HT1080.hFAP (FAP-positive tumor) [1, 4]: 7.7 ± 0.4 % IA/g
- Biodistribution HT1080.wt (FAP-negative tumor) [1, 4]: 2.5 ± 0.2 % IA/g
- Biodistribution Heart [1, 4]: 0.7 ± 0.1 % IA/g
- Biodistribution Intestine [1, 4]: 0.6 ± 0.2 % IA/g
- Biodistribution Kidney [1, 4]: 1.0 ± 0.1 % IA/g
- Biodistribution Liver [1, 4]: 0.8 ± 0.2 % IA/g
- Biodistribution Lung [1, 4]: 1.0 ± 0.1 % IA/g
- Biodistribution Muscle [1, 4]: 1.4 ± 0.2 % IA/g
- Biodistribution Pancreas [1, 4]: 1.6 ± 0.1 % IA/g
- Biodistribution Spleen [1, 4]: 0.5 ± 0.1 % IA/g
- Biodistribution Stomach [1, 4]: 0.6 ± 0.1 % IA/g
- accumulation in tumor and target-positive tissues [1, 5]: high accumulation in FAP-positive (HT-1080.hFAP) tumor and murine-FAP-positive tissues
- retention in the body (remaining PET activity) [2]: highest retention in the body
- Bmax (hFAP): 9.0-10.3

Structure (SMILES): N#C[C@@H]1CC(F)(F)CN1C(=O)CNC(=O)c1ccnc2ccc(NC(=O)CCC(=O)NCCNC(=O)CC[C@H](C(=O)O)N3CCN4CCN(CC3)CC(=O)[O][61Cu][O]C(=O)C4)cc12 [[^61Cu]Cu-NODAGA-F1]
- Biodistribution Spleen ([1]; 1 hour p.i.): 0.8 ± 0.1 % I.A./g
- Biodistribution Adrenal [1, 3]: 2.3 ± 0.5 % IA/g
- Biodistribution Blood [1, 3]: 2.3 ± 0.1 % IA/g
- Biodistribution Femur [1, 3]: 10.9 ± 1.1 % IA/g
- Biodistribution HT1080.hFAP (FAP-positive tumor) [1, 3]: 12.6 ± 1.5 % IA/g
- Biodistribution HT1080.wt (FAP-negative tumor) [1, 3]: 4.5 ± 0.6 % IA/g
- Biodistribution Heart [1, 3]: 1.2 ± 0.3 % IA/g
- Biodistribution Intestine [1, 3]: 1.7 ± 0.4 % IA/g
- Biodistribution Kidney [1, 3]: 2.4 ± 0.3 % IA/g
- Biodistribution Liver [1, 3]: 1.5 ± 0.0 % IA/g
- Biodistribution Lung [1, 3]: 1.8 ± 0.0 % IA/g
- Biodistribution Muscle [1, 3]: 2.6 ± 0.7 % IA/g
- Biodistribution Pancreas [1, 3]: 2.5 ± 0.3 % IA/g
- Biodistribution Spleen [1, 3]: 0.8 ± 0.1 % IA/g
- Biodistribution Stomach [1, 3]: 1.1 ± 0.2 % IA/g
- Biodistribution Heart ([1]; 4 hours p.i.): 0.7 ± 0.1 % I.A./g
- Biodistribution Liver ([1]; 4 hours p.i.): 1.0 ± 0.2 % I.A./g
- Biodistribution Lung ([1]; 4 hours p.i.): 0.8 ± 0.2 % I.A./g
- Biodistribution Spleen ([1]; 4 hours p.i.): 0.5 ± 0.1 % I.A./g
- Biodistribution Stomach ([1]; 4 hours p.i.): 0.7 ± 0.1 % I.A./g
- Biodistribution Adrenal [1, 4]: 1.4 ± 0.2 % IA/g
- Biodistribution Blood [1, 4]: 1.2 ± 0.3 % IA/g
- Biodistribution Femur [1, 4]: 4.2 ± 1.5 % IA/g
- Biodistribution HT1080.hFAP (FAP-positive tumor) [1, 4]: 7.1 ± 3.0 % IA/g
- Biodistribution HT1080.wt (FAP-negative tumor) [1, 4]: 2.1 ± 0.5 % IA/g
- Biodistribution Heart [1, 4]: 0.7 ± 0.1 % IA/g
- Biodistribution Intestine [1, 4]: 1.1 ± 0.4 % IA/g
- Biodistribution Kidney [1, 4]: 1.5 ± 0.5 % IA/g
- Biodistribution Liver [1, 4]: 1.0 ± 0.2 % IA/g
- Biodistribution Lung [1, 4]: 0.8 ± 0.2 % IA/g
- Biodistribution Muscle [1, 4]: 1.3 ± 0.1 % IA/g
- Biodistribution Pancreas [1, 4]: 1.4 ± 0.2 % IA/g
- Biodistribution Spleen [1, 4]: 0.5 ± 0.1 % IA/g
- Biodistribution Stomach [1, 4]: 0.7 ± 0.1 % IA/g
- Biodistribution HT-1080.wt ([1]; 1 hour p.i.): 4.5 ± 0.6 % I.A./g
- Biodistribution HT-1080.wt ([1]; 4 hours p.i.): 2.1 ± 0.5 % I.A./g
- Biodistribution HT-1080.hFAP ([1]; 1 hour p.i.): 12.6 ± 1.5 % I.A./g
- Biodistribution HT-1080.hFAP ([1]; 4 hours p.i.): 7.1 ± 3.0 % I.A./g
- accumulation in tumor and target-positive tissues [1, 5]: high accumulation in FAP-positive (HT-1080.hFAP) tumor and murine-FAP-positive tissues
- retention in the body (remaining PET activity) [2]: highest retention in the body
- Bmax (hFAP): 8.6-9.2
